In ChEMBL document CHEMBL1152704, “Synthesis and structure-function analysis of Fe(II)-form-selective antibacterial inhibitors of Escherichia coli methionine aminopeptidase” (Bioorg Med Chem Lett, 2009):
In brackets after ≈: the same amount, converted by molar mass.

What was measured:
[1] = Inhibition of cobalt-activated Escherichia coli MetAP
[2] = Inhibition of mangnese-activated Escherichia coli MetAP
[3] = Inhibition of ferrous-activated Escherichia coli MetAP
Escherichia coli = assay: Antibacterial activity against Escherichia coli AS19; type: functional, organism-based

Compound | IC50 [1] [µM] | IC50 [2] [µM] | IC50 [3] [µM] | IC50 (Escherichia coli) [µM] | MIC (Escherichia coli) [µg/mL]
O=C(NC1CCC1)c1ccc(-c2ccc(O)c(O)c2)o1 | 22.5 | 7.9 | 1.2 | 43.9 | 29 (≈ 106 µM)
Oc1ccc(-c2cn(Cc3ccccc3)nn2)cc1O | 24.6 | 19.5 | 16.1 | 97.7 | 79 (≈ 296 µM)
Cn1ccnc1-c1ccc(O)c(O)c1 | > 100 | > 100 | > 100 | > 250 | 
O=C(NC1CCCC1)c1ncoc1-c1cccc(O)c1O | > 100 | > 100 | 11 | 165 | 199 (≈ 690 µM)
COC(=O)c1ncoc1-c1cccc(O)c1O | > 100 | > 100 | 14 | 120 | 99 (≈ 421 µM)
Oc1ccc(-c2ccccn2)cc1O | > 100 | > 100 | 19.3 | 211 | 106 (≈ 566 µM)
O=C(NC1CC1)c1ccc(-c2ccc(O)c(O)c2)o1 | > 100 | > 100 | 14.8 | 55 | 26 (≈ 100 µM)
C=CCCNC(=O)c1ccc(-c2ccc(O)c(O)c2)o1 | 21.2 | 6.7 | 1 | 50.8 | 39 (≈ 143 µM)
COc1cnc(-c2cccc(O)c2O)o1 | > 100 | > 100 | 11.2 | 228 | 164 (≈ 792 µM)
O=C(NC1CCCC1)c1ccc(-c2ccc(O)c(O)c2)o1 | 30.1 | 11.8 | 0.9 | 23.4 | 19 (≈ 66.1 µM)
Oc1ccc(-c2ncc(F)cn2)cc1O | 52.6 | > 100 | 10.6 | 206 | 80 (≈ 388 µM)
Oc1ccc(-c2ncccn2)cc1O | > 100 | > 100 | 25.5 | > 250 | 
C=CCCNC(=O)c1ncoc1-c1cccc(O)c1O | > 100 | > 100 | 13.4 | 97.2 | 99 (≈ 361 µM)
